Experimental data from patent US9938240B2, “Fluorinated derivatives of 3-hydroxypyridin-4-ones” (Apotex Technologies Inc., priority 2009, dated 2018).

Assays:
[1] = system: human neuroblastoma MC-65 cells; experiment: cells
Outline: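 MC-65 cells (conditional Aβ fusion-protein expression, TET-repressed) were washed free of TET and FBS, then exposed to compound ~48 h in serum-free medium without or with 1 μg/mL TET.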

[2] = Stoichiometry of Fe-complexes by Job's method; format: physicochemical; conditions: 0.1 M MOPS pH 7.4, absorbance at 458 nm
Protocol: In a typical experiment Fe-Apo7053 complex solutions were prepared by mixing a stock solution of Fe^2+ (atomic absorption standard, 989 μg/mL in 1 wt % HCl, Aldrich) and a stock solution of Apo7053 (7.88×10^−3 M in 0.1 M MOPS, pH 7.4). Twelve sample solutions were prepared. While the sum of the total iron concentration ([iron]total) and the total ligand concentration ([L]total) in each of the 12 sample solutions were kept constant (8.00×10^−4 M), the molar fraction of the ligand, α (α=[L]total/([L]total+[iron]total)), for the 12 sample solutions were different, and were prepared as 0.0, 0.1, 0.2, 0.3, 0.4, 0.5, 0.6, 0.7, 0.75, 0.8, 0.9 and 1.0, respectively. The total volume for each of the 12 sample solutions was 5 mL, using MOPS (0.1 M, pH 7.4) as the solvent. The pH of the 12 solutions were adjusted to pH 7.4 with NaOH. The sample solutions were vortexed at rt for 2.5 h, and then stayed at rt overnight. The sample solutions were centrifuged at 4000 rpm for 15 min. The UV-Vis spectrum was recorded at 22° C. for each of the 12 solutions.
A Job's plot was created with the absorbance at 458 nm as the y-axis and α as the x-axis. A maximum absorbance was found at α=0.75, which corresponds to an iron:ligand ratio of 1:3 in the complexes.

[3] = system: SH-SY5Y human neuroblastoma cells
Outline: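 SH-SY5Y cells were treated with a range of compound concentrations, with or without 50 μM H2O2, in serum-free medium for 16–22 h. Viability was measured by MTT and expressed relative to cells receiving neither H2O2 nor compound. Runs without H2O2 assessed cytotoxicity.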

[4] = Benzoic acid hydroxylation assay; conditions: benzoic acid 1 mM, H2O2 6 mM, FeCl3 30 μM, chelator 30 μM, pH 7.4, up to 81 h
Description: Benzoic acid is a hydroxyl radical scavenger and reacts with hydroxyl radical to give 2-hydroxy, 3-hydroxy and 4-hydroxybenzoic acids. The benzoic acid hydroxylation assay is a chemical assay designed to detect damage caused by hydroxyl radical (Dean and Nicholson, Free Radical Research 1994, vol 20, 83-101). For example, deferiprone suppresses the formation of hydroxybenzoic acids in the presence of iron salts and hydrogen peroxide, while EDTA and iron salts allow such hydroxylation reactions to take place.
This screening assay involves the use of iron salt, benzoic acid, hydrogen peroxide and the chelator and measures the ability of the chelator to inhibit the formation of hydroxybenzoate as an indicator to prevent hydroxyl radical formation in living system.
Briefly, this procedure is based on the ability of hydroxyl radicals to hydroxylate benzoate to give 2-, 3- and 4-hydroxylated benzoic acid products. Benzoic acid (1 mM) is incubated over time up to 81 h at room temperature in the dark in 10 mM phosphate buffer (pH 7.4) with 6 mM hydrogen peroxide, ferric chloride (30 μM) and the Fe chelator (30 μM). HPLC is the method of choice used to monitor and quantify the amount of 2-, 3- and 4-hydroxylated products formed over time in the reaction mixture, and can be verified against authentic benzoic acid and its hydroxylated products via their respective retention times and areas under curve. In addition, several controls are used: (i) a control without added Fe stock solution and Fe chelator; (ii) a control without added Fe chelator; (iii) EDTA as positive control; and (iv) deferiprone as negative control. The Fe-EDTA system is a hydroxyl radical generator and is known to promote hydroxylation of benzoic acid.

Cc1c(O)c(=O)c(C(N(C)C)C(F)(F)F)cn1C (centres unmarked) [Apo7053, 5-[1-(dimethylamino)-2,2,2-trifluoroethyl]-3-hydroxy-1,2-dimethylpyridin-4(1H)-one]
EC100 ([1]; Homo sapiens, MC65, 48 h, read-out: EC100 (maximum effective concentration)): 10 µM
minimal effective concentration ([1]; Homo sapiens, MC65, 48 h, read-out: TH (threshold protective concentration)): 0.1 µM
CC2 (cytotoxic concentration) ([1]; MC-65, cultured without tetracycline, viability below 80%): 20 µM
CC1 (cytotoxic concentration) ([1]; MC-65, presence of TET, viability below 80%): 40 µM
molar fraction of ligand α at maximum absorbance (Job's plot) [2]: 0.75
CC2 (cytotoxic concentration) ([3]; H2O2-treated cells, viability below 80%): >640 µM
CC1 (cytotoxic concentration) ([3]; absence of H2O2, viability below 80%): 2.2 µM
hydroxylation of benzoic acid by Fe chelate [4]: do not promote the hydroxylation of benzoic acid
